From patent US20070148220A1, “Liposomes and liposomal compositions for vaccination and drug delivery” (priority 2003, published 2007)

Key:
murine B cells = assay: Induction of B cell proliferation (CFSE); format: cell-based; conditions: ODN 5 to 200 nmol/l, free or AVE3-encapsulated
From the text: FIG. 12: Comparison of the biological activity of CpG-PTO and CpG-PDO. Cells were labeled with CFSE before being stimulated for 48 hrs with 0 to 0.2 μmol/l end concentration of ODNs in saline or liposomal. (black diamonds) CpG-PTO in saline; (grey diamonds) CpG-PDO in saline; (black squares) liposomal CpG-PTO; (grey squares) liposomal CpG-PDO. Dead cells were excluded by propidium iodide staining.
CpG oligonucleotides have been described to induce B cell proliferation. The effects of free or encapsulated CpG phosphorothioate oligonucleotides (CpG-PTO) (see example 6) on proliferation of murine B cells (FIG. 11A) were compared. […] Induction of B cell proliferation was dependent on the concentration of applied ODN with strong B cell proliferation observed between 50 to 200 nmol/l encapsulated ODN. Similar values were obtained for CpG-ODN encapsulated at different concentrations (between 4.6 μg/μmol lipid to 93.5 μg/μmol lipid). No induction of B cell proliferation was observed using free or encapsulated non-CpG-ODN (FIG. 11B).
CpG phosphorothioate (CpG-PTO) or CpG phosphodiester (CpG-PDO) oligonucleotides (see example 6) were analyzed for the induction of B cell proliferation in free or AVE3-encapsulated form using ODN concentrations between 5 to 200 nmol/l. […]

[1] = test system: B16.F1 and TRP-2 pulsed EL4; assay: CTL cytotoxicity against TRP-2 presenting cells after immunization; format: in vivo, mouse; conditions: free versus liposomal
Method: In another set of experiments antigen-specificity of cytotoxic T lymphocytes after liposomal vaccination (FIG. 20) was analyzed. Mice were immunized with AVE3-encapsulated or free TRP-2 and CpG-PTO as described above. Cells prepared from lymph nodes were then tested for cytotoxicity using as targets the mouse melanoma cell line B16.F1 know to present TRP-2 in the context of H-2K^b, TRP-2 pulsed EL4 cells, OVA peptide-pulsed EL4 cells, unpulsed EL4 cells, and YAC-1 cells to exclude a potential NK cell activity. […] As described above 10-fold higher amounts of free TRP-2 and 4-fold higher amounts of CpG-PTO were necessary to induce the same CTL response.

[2] = test system: TRP-2-specific T cells (splenocytes); assay: Avidity of TRP-2-specific T cells (splenocyte proliferation, ATPlite); format: in vivo, BL6 mice; conditions: after two immunizations
Method: FIG. 22: Vaccination with liposomal-encapsulated TRP-2 plus CpG-PTO. The vaccination with liposomal-encapsulated TRP-2 plus CpG-PTO generates high avidity T cells. BL6 mice were vaccinated with 10 μg liposomal or 100 μg free TRP-2 plus 5 nmol free CpG ODN at weekly intervals up to three times. Lymphocytes were isolated from spleen (A) and lymph node (LN) (B) one week after last immunization and an IFNγ capture assay was performed as described. C, Avidity of T cells after vaccination with liposomal and free TRP-2 plus CpG ODN. One week after the last immunization splenocytes were nylon-wool enriched and cultured for 5 days in vitro in the presence of high dose (10^−6 mol/l) or low dose TRP-2 (10^−9 mol/l) or control peptide […] (10^−6 mol/l) with low dose IL2 (30 U/ml). Proliferation was estimated by a luminescence assay-based detection system measuring ATP content. Proliferation of splenocytes in the presence of anti-TCR plus anti-CD28 mAb was set to 100%. Representative data from one of two similar experiments are shown.
Finally, the avidity of TRP-2-specific CTLs in animals immunized with liposomal or free TRP-2, respectively (FIG. 21) was compared. […] In parallel to the IFNγ secretion assay nylon-wool column enriched splenocytes were cultured with high (10^−6 mol/l) and low dose TRP-2 (10^−9 mol/l), for 5 days and cell proliferation was determined using the ATPlite™-M system. […]

| Substance | induction of B cell proliferation (murine B cells) | higher amounts necessary to induce the same CTL response [1] [fold] | avidity of T cells, liposomal vs. free TRP-2 [2] |
| --- | --- | --- | --- |
| non-CpG-ODN: non-CpG-1982-PTO, 5′-TCCAGGACTTCTCTCAGGT-3′, free (DNA, all phosphorothioate, methylation of C not given here) | No induction | – | – |
| free TRP-2: antigenic peptide TRP-2 (SVYDFFVWL), not encapsulated | – | 10 | more polyclonal response of splenocytes consisting of low and high avidity T cells |
